The source of these data is patent US11365177B2, “Chemical uncouplers of respiration and methods of use thereof” (Dana-Farber Cancer Institute, Inc., priority 2017, dated 2022).

Peptide text beside a SMILES is read from it. * marks the point of attachment. Oleoyl = CCCCCCCC/C=C\CCCCCCCC(=O)*

The first test concerns C2C12 cells. The test is described as follows: Measurement of cellular respiration (Seahorse), uncoupling bioactivity. The class given is cell-based. The note with it: Mus musculus, Table 2, various head groups, 50 μM compound, maximal increase versus basal oligomycin-treated respiration, means SEM, n=3-6/group, read-out: % stimulation of respiration (baseline = 100%). The method, then: Oligomycin was purchased from EMD Millipore, and FCCP and rotenone were purchased from Sigma. C2C12 cells were seeded at 35,000 cells/well in an XF24 cell culture microplate (V7-PS, Seahorse Bioscience) and analyzed the following day. On the day of analysis, the cells were washed once with Seahorse respiration buffer (8.3 g/l DMEM, 1.8 g/l NaCl, 1 mM pyruvate, 20 mM glucose, pen/strep), placed in 0.5 ml Seahorse respiration buffer, and incubated in a CO2-free incubator for 1 h. Port injection solutions were prepared as follows (final concentrations in assay in parentheses): 10 μM oligomycin (1 μM final), 500 μM indicated compound (50 μM final), 2 μM FCCP (0.2 μM final), and 30 μM rotenone (3 μM final). The Seahorse program was run as follows: basal measurement, 3 cycles; inject port A (oligomycin), 3 cycles; inject port B (compounds), 8 cycles; inject port C (FCCP), 3 cycles; inject port D (rotenone), 3 cycles. Each cycle consisted of mix 2 min, wait 0 min, and measure 2 min. For data expressed as a percentage of oligomycin-treated basal, the respiration at cycle 6 was normalized to 100%, and the maximum respiration at any time point between cycles 7 and 15 inclusive was used.
Tables 1-4 show uncoupling bioactivity of compounds of the disclosure with different fatty acid side chains. Respiration in C2C12 cells is shown as maximal increases versus basal oligomycin-treated respiration, which is normalized to 100%. Data are shown as means SEM, n=3-6/group.
On to `CCCCCCCC/C=C\CCCCCCCC(=O)N[C@@H](Cc1ccccc1)C(=O)O` [Compound 1, Oleoyl-L-phenylalanine], for which the activity at 50 µM was found to be 161 ± 12%.

For the molecule `CCCCCCCC/C=C\CCCCCCCC(=O)N[C@H](Cc1ccccc1)C(=O)O` [Compound 2, Oleoyl-D-phenylalanine], the activity at 50 µM came out at 173 ± 9%.

As to `CCCCCCCC/C=C\CCCCCCCC(=O)N[C@@H](CCC(N)=O)C(=O)O` [Compound 6, Oleoyl-L-glutamine], the activity at 50 µM was 164 ± 4%.

`CCCCCCCC/C=C\CCCCCCCC(=O)N[C@@H](CCC(=O)O)C(=O)O` [Compound 11, Oleoyl-L-glutamic acid]: the activity at 50 µM was 106 ± 7%.

In the case of `CCCCCCCC/C=C\CCCCCCCC(=O)N[C@@H](CC(C)C)C(=O)O` [Compound 4, Oleoyl-L-leucine], the activity at 50 µM stood at 178 ± 13%.

Take `CCCCCCCC/C=C\CCCCCCCC(=O)N[C@@H](Cc1c[nH]c2ccccc12)C(=O)O` [Compound 8, Oleoyl-L-tryptophan]: the activity at 50 µM came out at 147 ± 9%.

`CCCCCCCC/C=C\CCCCCCCC(=O)N1CCC[C@H]1C(=O)O` [Compound 7, Oleoyl-L-proline]: the activity at 50 µM stood at 182 ± 7%.

Take `CCCCCCCC/C=C\CCCCCCCC(=O)NCC(=O)NCC(=O)O` [Compound 12, Oleoylglycylglycine] (Oleoyl-Gly-Gly-OH): the activity at 50 µM came to 206 ± 32%.

On to `CCCCCCCC/C=C\CCCCCCCC(=O)N[C@H](C(=O)O)[C@@H](C)CC` [Compound 5, Oleoyl-L-isoleucine], for which the activity at 50 µM turned out to be 167 ± 14%.

With `CCCCCCCC/C=C\CCCCCCCC(=O)N[C@@H](CCCCN)C(=O)O` [Compound 9, Oleoyl-L-lysine], the activity at 50 µM was 108 ± 4%.

Turning to `CCCCCCCC/C=C\CCCCCCCC(=O)N[C@@H](Cc1ccc(O)cc1)C(=O)O` [Compound 10, Oleoyl-L-tyrosine], the activity at 50 µM turned out to be 105 ± 13%.

On to `CCCCCCCC/C=C\CCCCCCCC(=O)NCCc1ccccc1` [Compound 3, N-phenethyloleamide], for which the activity at 50 µM came out at 104 ± 4%.

For the molecule `CCCCCCCC/C=C\CCCCCCCC(=O)NCCC(=O)O` [Compound 13, 3-Oleamidopropanoic acid], the activity at 50 µM stood at 185 ± 10%.

The same test, now with this note: Mus musculus, Table 3, various fatty acid side chains, 50 μM compound, maximal increase versus basal oligomycin-treated respiration, means SEM, n=3-6/group, read-out: % stimulation of respiration (baseline = 100%).
Consider `CC/C=C\C/C=C\C/C=C\C/C=C\C/C=C\C/C=C\CCC(=O)N[C@@H](Cc1ccccc1)C(=O)O` [Compound 27, ((4Z,7Z,10Z,13Z,16Z,19Z)-Docosa-4,7,10,13,16,19-hexaenoyl)-L-phenylalanine], for which the activity at 50 µM was 166 ± 11%.

With `CCCCC/C=C\C/C=C\C/C=C\C/C=C\CCCC(=O)N[C@@H](Cc1ccccc1)C(=O)O` [Compound 25, ((5Z,8Z,11Z,14Z)-Icosa-5,8,11,14-tetraenoyl)-L-phenylalanine], the activity at 50 µM was determined as 200 ± 12%.

`CCC/C=C\C/C=C\C/C=C\CCCCCCC(=O)N[C@@H](Cc1ccccc1)C(=O)O` [Compound 20, ((8Z,11Z,14Z)-Octadeca-8,11,14-trienoyl)-L-phenylalanine]: the activity at 50 µM came to 109 ± 12%.

Take `CCCCC/C=C\C/C=C\CCCCCCCC(=O)N[C@@H](Cc1ccccc1)C(=O)O` [Compound 19, ((9Z,12Z)-Octadeca-9,12-dienoyl)-L-phenylalanine]: the activity at 50 µM stood at 218 ± 10%.

With `CCCCCCCCCCCCCCCCCCCC(=O)N[C@@H](Cc1ccccc1)C(=O)O` [Compound 17, Icosanoyl-L-phenylalanine], the activity at 50 µM is 95 ± 8%.

`CCCCCCCCCCC/C=C\CCCCC(=O)N[C@@H](Cc1ccccc1)C(=O)O` [Compound 22, (Z)-Octadec-6-enoyl-L-phenylalanine]: the activity at 50 µM stood at 110 ± 12%.

In the case of `CCCCCCCCCCCCCCCCCC(=O)N[C@@H](Cc1ccccc1)C(=O)O` [Compound 16, Stearoyl-L-phenylalanine], the activity at 50 µM was found to be 148 ± 12%.

For the molecule `CCCCCCCC/C=C\CCCCCCCCCC(=O)N[C@@H](Cc1ccccc1)C(=O)O` [Compound 24, (Z)-Icos-11-enoyl-L-phenylalanine], the activity at 50 µM was 103 ± 3%.

With `CCCCCCCCCCCCCCCC(=O)N[C@@H](Cc1ccccc1)C(=O)O` [Compound 15, Palmitoyl-L-phenylalanine], the activity at 50 µM came to 180 ± 20%.

Consider `CCCCCCCC/C=C/CCCCCCCC(=O)N[C@@H](Cc1ccccc1)C(=O)O` [Compound 21, (E)-Octadec-9-enoyl-L-phenylalanine], for which the activity at 50 µM turned out to be 107 ± 3%.

As for `CCCCCCCCCCCCCCCCCCCCCC(=O)N[C@@H](Cc1ccccc1)C(=O)O` [Compound 18, Docosanoyl-L-phenylalanine], the activity at 50 µM stood at 100 ± 3%.

Regarding `CCCCCC/C=C\CCCCCCCCCC(=O)N[C@@H](Cc1ccccc1)C(=O)O` [Compound 23, (Z)-Octadec-11-enoyl-L-phenylalanine], the activity at 50 µM is 115 ± 8%.

As to `CC/C=C\C/C=C\C/C=C\C/C=C\C/C=C\CCCC(=O)N[C@@H](Cc1ccccc1)C(=O)O` [Compound 26, ((5Z,8Z,11Z,14Z,17Z)-Icosa-5,8,11,14,17-pentaenoyl)-L-phenylalanine], the activity at 50 µM is 259 ± 43%.

Take `CCCCCCCCCCCC(=O)N[C@@H](Cc1ccccc1)C(=O)O` [Compound 14, Dodecanoyl-L-phenylalanine]: the activity at 50 µM amounted to 96 ± 4%.

Still in this test, the particulars now being: Mus musculus, Table 4, urea analogs, 50 μM compound, maximal increase versus basal oligomycin-treated respiration, means SEM, n=3-6/group, read-out: % stimulation of respiration (baseline = 100%).
For `CCCCCCCC/C=C\CCCCCCCCNC(=O)N[C@@H](Cc1ccccc1)C(=O)O` [Compound 29, (Z)-(Octadec-9-en-1-ylcarbamoyl)-L-phenylalanine], the activity at 50 µM was 97 ± 5%.

Regarding `CCCCCCCC/C=C\CCCCCCCCNC(=O)NCC(=O)O` [Compound 28, (Z)-(Octadec-9-en-1-ylcarbamoyl)glycine], the activity at 50 µM turned out to be 104 ± 3%.

Still in this test, the particulars now being: Mus musculus, Table 5, cyclic head groups, 50 μM compound, maximal increase versus basal oligomycin-treated respiration, means SEM, n=3-6/group, read-out: % stimulation of respiration (baseline = 100%).
Turning to `CCCCCCCC/C=C\CCCCCCCC(=O)N1CCCC[C@H]1C(=O)O` [Compound 30, (S)-1-Oleoylpiperidine-2-carboxylic acid], the activity at 50 µM was found to be 174 ± 3%.

For the molecule `CCCCCCCC/C=C\CCCCCCCC(=O)N1c2ccccc2C[C@H]1C(=O)O` [Compound 35, (S)-1-Oleoylindoline-2-carboxylic acid], the activity at 50 µM was found to be 146 ± 5%.

Regarding `CCCCCCCC/C=C\CCCCCCCC(=O)N1Cc2ccccc2C[C@H]1C(=O)O` [Compound 31, (S)-2-Oleoyl-1,2,3,4-tetrahydroisoquinoline-3-carboxylic acid], the activity at 50 µM turned out to be 187 ± 19%.

With `CCCCCCCC/C=C\CCCCCCCC(=O)N1CCc2ccccc2C1C(=O)O` (stereo not drawn) [Compound 32, 2-Oleoyl-1,2,3,4-tetrahydroisoquinoline-1-carboxylic acid], the activity at 50 µM was 216 ± 17%.
